Legend:
Type in all cases: cell-based
[1] = target: T1, IDO1 (Homo sapiens, UniProt P14902); experiment: IDO1 cellular assay in Hela cells stimulated with IFNγ; conditions: IFNγ 100 ng/mL, 300 uM L-tryptophan, about 48 hours, fluorescence readout
[2] = target: T2, TDO (Homo sapiens, UniProt P48775); experiment: TDO cellular assay in frozen SW48 cells; conditions: 300 uM L-tryptophan, about 48 hours, fluorescence readout
T2 construct: endogenous in cells; host or cells: SW48 cells (A2780 cells as low-TDO control)
T2 sequence (P48775 whole entry): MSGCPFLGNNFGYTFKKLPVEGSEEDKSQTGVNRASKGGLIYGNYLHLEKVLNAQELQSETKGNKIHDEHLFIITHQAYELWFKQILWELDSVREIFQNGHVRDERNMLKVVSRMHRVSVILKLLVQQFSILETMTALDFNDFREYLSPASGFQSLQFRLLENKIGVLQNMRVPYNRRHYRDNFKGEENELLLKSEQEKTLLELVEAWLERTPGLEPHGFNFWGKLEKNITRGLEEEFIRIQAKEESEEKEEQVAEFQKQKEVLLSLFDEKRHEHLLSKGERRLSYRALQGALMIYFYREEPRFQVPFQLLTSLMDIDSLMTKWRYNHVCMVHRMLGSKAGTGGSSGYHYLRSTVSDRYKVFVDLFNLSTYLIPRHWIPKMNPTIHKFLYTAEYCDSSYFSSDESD

[3] = target: T1, IDO1; experiment: IDO1 human whole blood assay; design: Human whole blood was drawn in sodium heparin coated tubes from healthy internal donors; from tissue; host or cells: human whole blood from healthy donors, stimulated with LPS and IFNγ; conditions: LPS and IFNγ 100 ng/mL, 18 h, kynurenine by LC/MS/MS
Experimental: IDO1Human Whole Blood Assay
Compounds to be tested were serially diluted in ten 3-fold steps in DMSO starting from 10 mM. […] LPS and IFNγ was prepared in RPMI to a 10× of final conc. (1000 ng/mL), final concentration is 100 ng/mL.
Human whole blood was drawn in sodium heparin coated tubes from healthy internal donors. […] of blood was transferred to each of the wells of a v-bottom 96 well plate. […] of compound was transferred from intermediate dilution plate, and incubated for 15 min. 30 μL from stimulants was then transferred to blood and mixed thoroughly. Plate was covered with breathable membrane and incubated at 37° C. for overnight (18 h).
On day 2 isotope labeled standard of kynurenine and tryptophan was made in water at 10× concentration and […] was added to the blood at […] final concentration. The assay plates were centrifuged at 300×G for 10 min with no brake to separate plasma from red blood cells. […] of plasma samples was removed without disturbing red blood cells. Plasma was diluted with RPMI in 1:1 ratio and proteins were precipitated out with two volume of Acetonitrile. The plates was centrifuged at 4000×G for 60 min. 20 mL of supernatant was carefully transferred to a 384 well plate contain 40 mL of 0.1% formic acid in water and analyzed by LC/MS/MS.
LC/MS/MS analyses were performed using Thermo Fisher's LX4-TSQ Quantum Ultra system. This system consists of four Agilent binary high-performance liquid chromatography (HPLC) pumps and a TSQ Quantum Ultra triple quadruple MS/MS instrument. For each sample, […] were injected onto an Atlantis T3 column (2.1 mm×150 mm, […]) from Waters. The mobile phase gradient pumped at 0.8 mL/min was used to elute the analytes from the column at 25° C. […] Mobile phase A consisted of 0.1% formic acid in water. Mobile phase B consisted of 0.1% of formic acid in acetonitrile. Data was acquired in positive mode using a HESI interface. The operational parameters for the TSQ Quantum Ultra instrument were a spray voltage of 4000 V, capillary temperature of 380° C., vaporizer temperature 400° C., shealth gas 60 arbitrary units, Aux gas 20 arbitrary units, tube lens 85 and collision gas 1.2 mTorr. […] The peak area was integrated by Xcalibur Quan software. The ratios between the kynurenine generated in the reaction and 2D6-Kynurenine spiked-in internal standard were used to generate percentage inhibition and IC50 values. Compounds were titrated and IC50′s were calculated by 4 parameter sigmoidal curve fitting formula.

T1 sequence (P14902 whole entry): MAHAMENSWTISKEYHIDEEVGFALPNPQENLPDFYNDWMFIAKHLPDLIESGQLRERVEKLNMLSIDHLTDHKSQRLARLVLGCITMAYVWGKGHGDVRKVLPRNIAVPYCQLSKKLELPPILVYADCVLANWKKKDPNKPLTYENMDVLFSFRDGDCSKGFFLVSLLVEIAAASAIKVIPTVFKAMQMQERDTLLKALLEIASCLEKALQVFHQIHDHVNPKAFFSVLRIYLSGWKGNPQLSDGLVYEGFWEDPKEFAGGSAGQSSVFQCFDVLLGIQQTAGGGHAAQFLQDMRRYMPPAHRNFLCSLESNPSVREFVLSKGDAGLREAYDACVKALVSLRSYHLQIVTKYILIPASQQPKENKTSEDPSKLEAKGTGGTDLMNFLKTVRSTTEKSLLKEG

IC50 [1]: 10 nM | IC50 [2]: ≥ 10000 nM | IC50 [3]: 2010 nM
SMILES: O=C(Nc1ccc(C2(C(=O)Nc3ccc(F)cc3)CCC2)cn1)C1CCCCC1 [Example 15, N-(5-{1-[(4-fluorophenyl)carbamoyl]cyclobutyl}pyridin-2-yl) cyclohexanecarboxamide]

From US11111232B2, “Substituted cyclobutylpyridine and cyclobutylpyrimidine compounds as indoleamine 2,3-dioxygenase (IDO) inhibitors” (MERCK SHARP & DOHME CORP., priority 2017, dated 2021)
